Measurements reported in ChEMBL document CHEMBL4673334, “In Vivo Biological Evaluation of a Synthetic Royleanone Derivative as a Promising Fast-Acting Trypanocidal Agent by Inducing Mitochondrial-Dependent Necrosis” (J Nat Prod, 2020).
Calls of active or inactive are those of the source. The calls are words filed in the database; no cut-off is given here.

How the values were obtained:
[1] = Inhibition of Trypanosoma cruzi MHOM/Pe/2011/Arequipa(DTU V) epimastigote form Fe-SOD by UV-VIS spectrophotometric method
Trypanosoma cruzi [2] = experiment: Inhibition of nucleic acid level in Trypanosoma cruzi MHOM/Pe/2011/Arequipa(DTU V) epimastigote form at IC25 concentration after 72 hrs by Rho (FITC-A) staining based flow cytometric analysis; assay type: functional
Trypanosoma cruzi [3] = experiment: Inhibition of mitochondrial membrane potential in Trypanosoma cruzi MHOM/Pe/2011/Arequipa(DTU V) epimastigote form at IC25 concentration after 72 hrs by Rho (FITC-A) staining based flow cytometric analysis; assay type: functional
Trypanosoma cruzi [4] = experiment: Antitrypanosomal activity against Trypanosoma cruzi MHOM/Pe/2011/Arequipa(DTU V) epimastigote form assessed as disruption of L-alanine level at IC25 concentration incubated for 72 hrs by NMR spectrometric analysis; assay type: functional, organism-based
Trypanosoma cruzi [5] = experiment: Antitrypanosomal activity against Trypanosoma cruzi MHOM/Pe/2011/Arequipa(DTU V) epimastigote form assessed as disruption of acetate level at IC25 concentration incubated for 72 hrs by NMR spectrometric analysis; assay type: functional, organism-based
Trypanosoma cruzi [6] = experiment: Antitrypanosomal activity against Trypanosoma cruzi MHOM/Pe/2011/Arequipa(DTU V) epimastigote form assessed as disruption of ethanol end product level at IC25 concentration incubated for 72 hrs by NMR spectrometric analysis; assay type: functional, organism-based
[7] = Toxicity in BALB/c mouse infected with Trypanosomal Trypanosoma cruzi MHOM/Pe/2011/Arequipa(DTU V) assessed as reduction in weight at 20 mg/kg, po administered for 5 days starting at 9 days post infection and measured up to 145 days post infection; assay type: organism-based; details: in vivo, 120 h, time 5 day
[8] = Toxicity in BALB/c mouse infected with Trypanosomal Trypanosoma cruzi MHOM/Pe/2011/Arequipa(DTU V) assessed as reduction in survival at 20 mg/kg, po administered for 5 days starting at 100 days post infection and measured up to 145 days post infection; assay type: organism-based; details: in vivo, 120 h, time 5 day
[9] = Toxicity in BALB/c mouse infected with Trypanosomal Trypanosoma cruzi MHOM/Pe/2011/Arequipa(DTU V) assessed as reduction in survival at 20 mg/kg, po administered for 5 days starting at 9 days post infection and measured up to 145 days post infection; assay type: organism-based; details: in vivo, 120 h, time 5 day
[10] = Toxicity in BALB/c mouse infected with Trypanosomal Trypanosoma cruzi MHOM/Pe/2011/Arequipa(DTU V) assessed as effect on ALP level at 20 mg/kg, po administered for 5 days starting at 100 days post infection and measured after 2 days post treatment; assay type: organism-based; details: in vivo, 120 h, time 5 day
[11] = Toxicity in BALB/c mouse infected with Trypanosomal Trypanosoma cruzi MHOM/Pe/2011/Arequipa(DTU V) assessed as effect on […] level at 20 mg/kg, po administered for 5 days starting at 100 days post infection and measured after 2 days post treatment; assay type: organism-based; details: in vivo, 120 h, time 5 day
[12] = Toxicity in BALB/c mouse infected with Trypanosomal Trypanosoma cruzi MHOM/Pe/2011/Arequipa(DTU V) assessed as effect on CK-MB level at 20 mg/kg, po administered for 5 days starting at 100 days post infection and measured after 2 days post treatment; assay type: organism-based; details: in vivo, 120 h, time 5 day
[13] = Toxicity in BALB/c mouse infected with Trypanosomal Trypanosoma cruzi MHOM/Pe/2011/Arequipa(DTU V) assessed as effect on uric acid level at 20 mg/kg, po administered for 5 days starting at 100 days post infection and measured after 2 days post treatment; assay type: organism-based; details: in vivo, 120 h, time 5 day
[14] = Toxicity in BALB/c mouse infected with Trypanosomal Trypanosoma cruzi MHOM/Pe/2011/Arequipa(DTU V) assessed as effect on urea level at 20 mg/kg, po administered for 5 days starting at 100 days post infection and measured after 2 days post treatment; assay type: organism-based; details: in vivo, 120 h, time 5 day
[15] = Toxicity in BALB/c mouse infected with Trypanosomal Trypanosoma cruzi MHOM/Pe/2011/Arequipa(DTU V) assessed as effect on ALP level at 20 mg/kg, po administered for 5 days starting at 9 days post infection and measured after 2 days post treatment; assay type: organism-based; details: in vivo, 120 h, time 5 day
[16] = Toxicity in BALB/c mouse infected with Trypanosomal Trypanosoma cruzi MHOM/Pe/2011/Arequipa(DTU V) assessed as effect on AST/GOT level at 20 mg/kg, po administered for 5 days starting at 9 days post infection and measured after 2 days post treatment; assay type: organism-based; details: in vivo, 120 h, time 5 day
[17] = Toxicity in BALB/c mouse infected with Trypanosomal Trypanosoma cruzi MHOM/Pe/2011/Arequipa(DTU V) assessed as effect on LDH level at 20 mg/kg, po administered for 5 days starting at 9 days post infection and measured after 2 days post treatment; assay type: organism-based; details: in vivo, 120 h, time 5 day
[18] = Toxicity in BALB/c mouse infected with Trypanosomal Trypanosoma cruzi MHOM/Pe/2011/Arequipa(DTU V) assessed as effect on urea level at 20 mg/kg, po administered for 5 days starting at 9 days post infection and measured after 2 days post treatment; assay type: organism-based; details: in vivo, 120 h, time 5 day
Trypanosoma cruzi [19] = experiment: Antitrypanosomal activity against Trypanosoma cruzi MHOM/Pe/2011/Arequipa(DTU V) amastigote form infected in BALB/c mouse assessed as reduction in parasitaemia at 20 mg/kg, po for 5 days starting at 9 days post infection and measured after 13 to 35 days post infection; assay type: functional, organism-based; details: time 5.0 day
Trypanosoma cruzi [20] = experiment: Antitrypanosomal activity against Trypanosoma cruzi MHOM/Pe/2011/Arequipa(DTU V) amastigote form infected in BALB/c mouse assessed as reduction in parasitaemia at 20 mg/kg, po for 5 days and measured after 55 days post infection; assay type: functional, organism-based; details: time 5.0 day
[21] = Selectivity index, ratio of IC50 for cytotoxicity against African green monkey Vero cells to IC50 for antitrypanosomal activity against Trypanosoma cruzi TINF/CH/1956/Tulahuen (DTU VI) epimastigote form; assay type: toxicity, cell-based; details: read-out: Ratio IC50
[22] = Selectivity index, ratio of IC50 for cytotoxicity against African green monkey Vero cells to IC50 for antitrypanosomal activity against Trypanosoma cruzi IRHOD/CO/2008/SN3 (DTU I) blood stream trypomastigote form; assay type: toxicity, cell-based; details: read-out: Ratio IC50
[23] = Selectivity index, ratio of IC50 for cytotoxicity against African green monkey Vero cells to IC50 for antitrypanosomal activity against Trypanosoma cruzi IRHOD/CO/2008/SN3 (DTU I) amastigote form infected in Vero cells; assay type: toxicity, cell-based; details: read-out: Ratio IC50
[24] = Selectivity index, ratio of IC50 for cytotoxicity against African green monkey Vero cells to IC50 for antitrypanosomal activity against Trypanosoma cruzi MHOM/Pe/2011/Arequipa(DTU V) epimastigote form; assay type: toxicity, cell-based; details: read-out: Ratio IC50
Vero = experiment: Cytotoxicity against African green monkey Vero cells assessed as reduction in cell viability after 48 hrs by resazurin dye based assay; details: Chlorocebus sabaeus
Trypanosoma cruzi [25] = experiment: Antitrypanosomal activity against Trypanosoma cruzi TINF/CH/1956/Tulahuen (DTU VI) epimastigote form assessed as parasite growth inhibition incubated for 48 hrs by resazurin dye based assay; assay type: functional, organism-based
Trypanosoma cruzi [26] = experiment: Antitrypanosomal activity against Trypanosoma cruzi IRHOD/CO/2008/SN3 (DTU I) amastigote form infected in Vero cells assessed as parasite growth inhibition incubated for 72 hrs by Giemsa-staining based assay; assay type: functional, organism-based
Trypanosoma cruzi [27] = experiment: Antitrypanosomal activity against Trypanosoma cruzi MHOM/Pe/2011/Arequipa(DTU V) blood stream trypomastigote form assessed as parasite growth inhibition incubated for 24 hrs by resazurin dye based assay; assay type: functional, organism-based

| Structure (SMILES) | IC50 [1] | inhibition (Trypanosoma cruzi [2]) | inhibition (Trypanosoma cruzi [3]) | Activity (Trypanosoma cruzi [4]) | Activity (Trypanosoma cruzi [5]) | Activity (Trypanosoma cruzi [6]) | Activity [7] | Activity [8] | Activity [9] | Activity [10] | Activity [11] | Activity [12] | Activity [13] | Activity [14] | Activity [15] | Activity [16] | Activity [17] | Activity [18] | Activity (Trypanosoma cruzi [20]) | selectivity ratio [21] | further results |
| --- | --- | --- | --- | --- | --- | --- | --- | --- | --- | --- | --- | --- | --- | --- | --- | --- | --- | --- | --- | --- | --- |
| COC(=O)[C@]1(C)CCC[C@]2(C)C3=C(C=C[C@@H]12)C(=O)C(C(C)C)=CC3=O | 6.5 µM | 50.4% | 50% | inactive | inactive | Active | Non-Toxic | Non-Toxic | Non-Toxic | Non-Toxic | Non-Toxic | Non-Toxic | Non-Toxic | Non-Toxic | Non-Toxic | Non-Toxic | Non-Toxic | Non-Toxic | Active | > 15 | Activity (Trypanosoma cruzi [19]): Active; selectivity ratio [22]: > 40; selectivity ratio [23]: > 40; selectivity ratio [24]: > 15; IC50 (Vero): 72.2 µM; IC50 (Trypanosoma cruzi [25]): 2.1 µM; IC50 (Trypanosoma cruzi [26]): 5.4 µM; IC50 (Trypanosoma cruzi [27]): 0.7 µM |
| CC(C)c1cc(C=O)c([C@@]2(C)CCCC(C)(C)C2=O)cc1O | > 100 µM | 36.4% | 41.8% | inactive | inactive | Active | Non-Toxic | Non-Toxic | Non-Toxic | Non-Toxic | Non-Toxic | Non-Toxic | Non-Toxic | Non-Toxic | Non-Toxic | Non-Toxic | Non-Toxic | Non-Toxic | Active | > 15 | selectivity ratio [22]: > 40; selectivity ratio [23]: > 40; selectivity ratio [24]: > 15; IC50 (Vero): 624 µM; IC50 (Trypanosoma cruzi [25]): 13.5 µM; IC50 (Trypanosoma cruzi [26]): 7.2 µM; IC50 (Trypanosoma cruzi [27]): 9.9 µM |
